Source: patent US9573970B2, “4-{4-[(1E)-4-(2,9-diazaspiro[5.5]undec-2-yl)but-1-en-1-yl]-2-methylbenzyl}-5-(propan-2-yl)-1H-pyrazol-3-yl beta-D glucopyranoside acetate” (Eli Lilly and Company, priority 2013, dated 2017)

System: male rats with STZ-induced diabetes
Test: Mixed meal tolerance test (MTT) in male rats with streptozotocin induced diabetes
Format: in vivo, rat
Conditions: for Glucose value, 0 min.: 30 min after compound, before meal; for Glucose value, 0 min. / Baseline Adjusted AUC (glucose) / Glucose value, 20 min. / Glucose value, 40 min. / Glucose value, 60 min. / Glucose value, 120 min.: mean ± SE; for Baseline Adjusted AUC (glucose): MTT
Procedure: The test compound is formulated by adding a vehicle of 1% hydroxyethylcellulose (HEC), 0.25% Tween® 80 w/antifoam 0.05% to preweighed test compound to make a 2.5 mg/ml solution. The mixture is probe sonicated for approximately 30 seconds. The resulting solution is used as a stock solution, from which the lower concentration dose solutions are prepared by dilution with the vehicle. STZ, 45 mg/kg, is formulated by dissolving in 0.1M Citrate buffer in 3 ml aliquots and stored in the dark on ice, when not being administered. A high fat content mixed meal (Bio-Serv® Rodent Diet F3282 High Fat) comprising Fat Calories (60%), Carbohydrate Calories (26%) and Protein Calories (15%) is utilized. Single housed Sprague Dawley rats are allowed to acclimate for a period of 3 to 7 days.
In an effort to ensure that the animals have not recently fed, STZ is administered in the afternoon, approximately six hours into the light cycle (lights on 6 am, lights off 6 pm). The animals are anesthetized with isoflurane and STZ is delivered via tail vein injection. Once animals regain consciousness, they are returned to housing and allowed to recover for 7 days.
On the two days immediately prior to the meal tolerance test (MTT) all rats are given a small amount (2-4 g) of the F3282 diet, so they became acclimated to it prior to receiving it during the experiment. On the evening before the experiment, the rats are moved into clean cages and their food is removed. The following morning animals are weighed and a blood sample is taken by tail snip for glucose measurement (Abbott AlphaTRAK™ glucometers: code 29) Animals are grouped n=6 based on fasted body weight and glucose. Thirty minutes after the test compound is orally administered, two glucose measurements are collected. Then a five gram pellet of Bio-Serv® diet 3282 is given. After 20 minutes remaining food is taken away and weighed. Blood samples are taken at 20, 40, 60 and 120 minutes for glucose measurement.

[1] = in words, Example 1 free base 10 and 30 mg/kg, Acarbose 60 mg/kg

Cc1cc(/C=C/CCN2CCCC3(CCNCC3)C2)ccc1Cc1c(O[C@@H]2O[C@H](CO)[C@@H](O)[C@H](O)[C@H]2O)n[nH]c1C(C)C [Example 1 (free base), 4-{4-[(1E)-4-(2,9-diazaspiro[5.5]undec-2-yl)but-1-en-1-yl]-2-methylbenzyl}-5-(propan-2-yl)-1H-pyrazol-3-yl beta-D-glucopyranoside]
Glucose value, 0 min. (10 mg/kg oral): 139 ± 16.1 mg/dL | Baseline Adjusted AUC (glucose) (10 mg/kg oral): 22432 ± 2234 | Glucose value, 20 min. (10 mg/kg oral): 221.2 ± 26.3 mg/dL | Glucose value, 40 min. (10 mg/kg oral): 268.7 ± 29 mg/dL | Glucose value, 60 min. (10 mg/kg oral): 330 ± 36.7 mg/dL | Glucose value, 120 min. (10 mg/kg oral): 490.8 ± 39.2 mg/dL | Glucose value, 0 min. (30 mg/kg oral): 137.4 ± 26.9 mg/dL | Baseline Adjusted AUC (glucose) (30 mg/kg oral): 14649 ± 3673 | Glucose value, 20 min. (30 mg/kg oral): 195.4 ± 44.8 mg/dL | Glucose value, 40 min. (30 mg/kg oral): 232 ± 52.2 mg/dL | Glucose value, 60 min. (30 mg/kg oral): 263.9 ± 62.2 mg/dL | Glucose value, 120 min. (30 mg/kg oral): 355.3 ± 73.2 mg/dL | Glucose baseline adjusted AUCs in the MTT [1]: dose dependent decrease in glucose baseline adjusted AUCs | Glucose in the MTT compared to the vehicle controls [1]: significantly and dose dependently decreases glucose
